Assay [1] addresses T1, Polyunsaturated fatty acid lipoxygenase ALOX15 (Oryctolagus cuniculus, UniProt P12530).
T1 sequence (P12530 whole entry): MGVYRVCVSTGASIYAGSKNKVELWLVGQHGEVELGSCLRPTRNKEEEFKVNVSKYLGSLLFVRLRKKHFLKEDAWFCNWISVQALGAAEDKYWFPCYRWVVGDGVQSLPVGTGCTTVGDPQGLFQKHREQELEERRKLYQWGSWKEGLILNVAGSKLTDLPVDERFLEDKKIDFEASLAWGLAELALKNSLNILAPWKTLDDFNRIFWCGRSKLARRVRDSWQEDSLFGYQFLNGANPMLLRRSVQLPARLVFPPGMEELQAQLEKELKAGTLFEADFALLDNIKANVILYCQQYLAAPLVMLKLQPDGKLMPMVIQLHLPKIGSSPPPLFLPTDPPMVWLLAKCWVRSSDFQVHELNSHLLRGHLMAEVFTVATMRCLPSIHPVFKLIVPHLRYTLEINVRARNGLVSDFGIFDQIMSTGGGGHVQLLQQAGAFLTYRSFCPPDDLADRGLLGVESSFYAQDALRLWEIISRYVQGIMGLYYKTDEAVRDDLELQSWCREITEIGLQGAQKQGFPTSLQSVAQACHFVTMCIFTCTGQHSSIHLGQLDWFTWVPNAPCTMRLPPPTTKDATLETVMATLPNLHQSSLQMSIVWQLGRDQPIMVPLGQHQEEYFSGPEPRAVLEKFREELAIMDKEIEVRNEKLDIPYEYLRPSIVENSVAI
The experiment in a line: biochemical. Format: tissue-based, Reticulocytes.

In assay [2] the target is 5-hydroxytryptamine receptor 2B (Homo sapiens, UniProt P41595). The assay is classed as cell membranes, CHO-K1, Membrane. The conditions noted are these: for Ki: read-out: Ki. On all read-outs here: in other assays of this panel Not Active means under 50% inhibition at 10 µM.
For assay [3], the target named is 5-hydroxytryptamine receptor 4 (Cavia porcellus, UniProt O70528). Format: cell membranes, Dunkin-Hartley, Striatum, Membrane. Further: in other assays of this panel Not Active means under 50% inhibition at 10 µM.
Another assay addresses Estrogen receptor beta (Homo sapiens, UniProt Q92731). The conditions noted are these: sf9.
Assay [4] deals with Beta-1 adrenergic receptor (Homo sapiens, UniProt P08588). As to the kind of experiment: DRUGMATRIX: Adrenergic beta1 radioligand binding (ligand: [125I] Cyanopindolol). Format: cell membranes, CHO-K1, Membrane. The conditions noted are these: cho-k1; Not Active = under 50% inhibition at 10 µM.
Assay [5] addresses C-C chemokine receptor type 2 (Homo sapiens, UniProt P41597). The assay is classed as cell membranes, Membrane. The conditions noted are these: cho-k1.

Our source for the IC50 and Ki values is ChEMBL document CHEMBL1909046, “DrugMatrix in vitro pharmacology data”.

The term IC50 denotes the point on the concentration scale where inhibition reaches its midpoint. What is called Ki is the equilibrium dissociation constant of an inhibitor or competing ligand from its target.

Each structure is given as a SMILES string.

C-C chemokine receptor type 2, sequence (P41597 whole entry): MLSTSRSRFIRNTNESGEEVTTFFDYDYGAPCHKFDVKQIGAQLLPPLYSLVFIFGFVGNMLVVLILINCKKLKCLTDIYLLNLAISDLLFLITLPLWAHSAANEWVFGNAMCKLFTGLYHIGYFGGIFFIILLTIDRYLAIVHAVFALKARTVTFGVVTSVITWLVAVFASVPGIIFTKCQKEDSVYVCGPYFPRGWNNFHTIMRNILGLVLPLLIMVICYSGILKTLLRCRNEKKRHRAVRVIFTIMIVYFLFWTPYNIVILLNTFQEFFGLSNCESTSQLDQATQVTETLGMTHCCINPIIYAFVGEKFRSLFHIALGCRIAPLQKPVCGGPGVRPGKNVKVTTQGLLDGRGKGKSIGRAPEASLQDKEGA
5-hydroxytryptamine receptor 2B, sequence (P41595 whole entry): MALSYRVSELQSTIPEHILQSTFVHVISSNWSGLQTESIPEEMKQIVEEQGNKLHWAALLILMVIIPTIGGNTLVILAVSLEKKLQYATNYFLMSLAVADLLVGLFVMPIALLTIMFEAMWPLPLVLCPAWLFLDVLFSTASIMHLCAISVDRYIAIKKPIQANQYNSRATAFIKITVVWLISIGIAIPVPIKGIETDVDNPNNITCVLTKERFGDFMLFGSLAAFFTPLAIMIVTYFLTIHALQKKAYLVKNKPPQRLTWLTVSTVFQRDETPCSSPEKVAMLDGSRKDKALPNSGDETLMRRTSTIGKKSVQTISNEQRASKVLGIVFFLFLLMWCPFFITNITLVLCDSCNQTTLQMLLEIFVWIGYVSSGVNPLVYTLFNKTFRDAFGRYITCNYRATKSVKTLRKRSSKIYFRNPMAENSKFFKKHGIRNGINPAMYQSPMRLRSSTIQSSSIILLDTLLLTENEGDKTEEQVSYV
5-hydroxytryptamine receptor 4, sequence (O70528 whole entry): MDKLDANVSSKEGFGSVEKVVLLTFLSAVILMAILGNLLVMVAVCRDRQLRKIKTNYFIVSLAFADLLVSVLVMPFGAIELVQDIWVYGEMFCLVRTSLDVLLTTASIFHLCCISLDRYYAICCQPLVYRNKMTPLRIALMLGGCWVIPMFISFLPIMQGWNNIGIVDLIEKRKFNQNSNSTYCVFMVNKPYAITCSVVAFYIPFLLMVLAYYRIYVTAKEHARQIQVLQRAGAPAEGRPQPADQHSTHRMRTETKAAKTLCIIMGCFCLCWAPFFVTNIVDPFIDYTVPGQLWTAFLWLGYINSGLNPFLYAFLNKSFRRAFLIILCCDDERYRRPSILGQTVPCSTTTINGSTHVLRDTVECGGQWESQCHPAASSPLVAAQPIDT
Estrogen receptor beta, sequence (Q92731 whole entry): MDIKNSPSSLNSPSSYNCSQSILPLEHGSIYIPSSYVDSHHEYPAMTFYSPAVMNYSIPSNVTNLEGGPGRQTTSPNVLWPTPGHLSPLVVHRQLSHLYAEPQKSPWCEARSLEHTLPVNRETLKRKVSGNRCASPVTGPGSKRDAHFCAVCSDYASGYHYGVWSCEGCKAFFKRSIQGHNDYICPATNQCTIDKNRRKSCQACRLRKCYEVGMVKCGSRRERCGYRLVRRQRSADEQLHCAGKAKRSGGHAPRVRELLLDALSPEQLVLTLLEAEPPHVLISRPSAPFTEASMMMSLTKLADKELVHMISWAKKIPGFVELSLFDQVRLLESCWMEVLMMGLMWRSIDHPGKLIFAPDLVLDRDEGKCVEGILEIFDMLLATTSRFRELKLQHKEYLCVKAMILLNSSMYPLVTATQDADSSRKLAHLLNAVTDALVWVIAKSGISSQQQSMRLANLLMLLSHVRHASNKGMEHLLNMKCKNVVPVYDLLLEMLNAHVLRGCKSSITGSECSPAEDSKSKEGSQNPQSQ
Beta-1 adrenergic receptor, sequence (P08588 whole entry): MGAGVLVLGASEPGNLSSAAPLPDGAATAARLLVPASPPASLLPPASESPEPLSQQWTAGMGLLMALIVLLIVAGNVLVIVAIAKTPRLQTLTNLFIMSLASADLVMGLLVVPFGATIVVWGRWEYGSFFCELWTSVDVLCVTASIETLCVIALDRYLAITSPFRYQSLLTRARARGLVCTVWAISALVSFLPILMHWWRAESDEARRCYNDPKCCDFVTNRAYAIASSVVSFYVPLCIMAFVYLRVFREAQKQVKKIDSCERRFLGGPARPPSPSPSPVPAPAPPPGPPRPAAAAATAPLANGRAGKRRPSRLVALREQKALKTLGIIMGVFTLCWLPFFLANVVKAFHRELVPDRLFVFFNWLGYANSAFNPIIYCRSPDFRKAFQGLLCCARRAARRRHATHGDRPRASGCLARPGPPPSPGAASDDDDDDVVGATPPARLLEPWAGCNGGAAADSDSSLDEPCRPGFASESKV

`O=C(c1ccccc1C(F)(F)F)N1CCC(Cc2ccccc2)CC1`: the IC50 result in assay [1] (reticulocytes) is “Not Active”; in assay [2] (read-out: IC50), 1550 nM; in assay [3] it was “Not Active”; at Estrogen receptor beta, “Not Active”; in assay [4], “Not Active”; in assay [5] it was “Not Active”. In addition, the Ki in assay [2] was determined as 986 nM.

Turning to `O=C/C=C/c1ccccc1`, the IC50 result in assay [1] (reticulocytes), in assay [2] (cho-k1), in assay [3], in assay [4] and in assay [5] was “Not Active” throughout.

Consider `Nc1ccc2c3c(cccc13)C(=O)NC2=O`, for which the IC50 entry (in assay [1] (reticulocytes); in assay [2] (cho-k1); in assay [3]; at Estrogen receptor beta; in assay [4]; in assay [5]) was “Not Active” throughout.

In the case of `COc1ccc(C(=O)N2CCCC2=O)cc1`, the IC50 entry in assay [1] (reticulocytes), in assay [2] (cho-k1), in assay [3], in assay [4] and in assay [5] was “Not Active” each time.

`O=c1cnn([C@@H]2O[C@H](CO)[C@@H](O)[C@H]2O)c(=O)[nH]1` [6-AZAURIDINE]: the IC50 entry (in assay [1] (reticulocytes); in assay [2] (cho-k1); in assay [3]; against Estrogen receptor beta; in assay [4]; in assay [5]) was “Not Active” each time.

For the compound `CC[C@H](C)[C@H]1O[C@]2(C=C[C@@H]1C)C[C@@H]1C[C@@H](C/C=C(\C)[C@@H](O[C@H]3C[C@H](OC)[C@@H](O[C@H]4C[C@H](OC)[C@@H](O)[C@H](C)O4)[C@H](C)O3)[C@@H](C)/C=C/C=C3\CO[C@@H]4[C@H](O)C(C)=C[C@@H](C(=O)O1)[C@]34O)O2.CO[C@H]1C[C@H](O[C@H]2[C@H](C)O[C@@H](O[C@@H]3/C(C)=C/C[C@@H]4C[C@@H](C[C@]5(C=C[C@H](C)[C@@H](C(C)C)O5)O4)OC(=O)[C@@H]4C=C(C)[C@@H](O)[C@H]5OC/C(=C\C=C\[C@@H]3C)[C@]54O)C[C@@H]2OC)O[C@@H](C)[C@@H]1O` [ABAMECTIN], the IC50 result in assay [1] (reticulocytes), in assay [2] (cho-k1), in assay [3], in assay [4] and in assay [5] was “Not Active” in each case.

`NCCCC(O)(P(=O)(O)O)P(=O)(O)O` [ALENDRONIC ACID]: the IC50 result (in assay [1] (reticulocytes); in assay [2] (cho-k1); in assay [3]; on Estrogen receptor beta; in assay [4]; in assay [5]) was “Not Active” throughout.

With `Cc1nnc2n1-c1ccc(Cl)cc1C(c1ccccc1)=NC2` [ALPRAZOLAM], the IC50 entry (in assay [1] (reticulocytes); in assay [2] (cho-k1); in assay [3]; on Estrogen receptor beta; in assay [4]; in assay [5]) was “Not Active” each time.

Consider `Cn1c(=O)c2[nH]cnc2n(C)c1=O.Cn1c(=O)c2[nH]cnc2n(C)c1=O.NCCN` [AMINOPHYLLINE], for which the IC50 entry in assay [1] (reticulocytes), in assay [2] (cho-k1), in assay [3], in assay [4] and in assay [5] was “Not Active” in each case.

On to `CC1(C)S[C@@H]2[C@H](NC(=O)[C@H](N)c3ccccc3)C(=O)N2[C@H]1C(=O)O` [AMPICILLIN], for which the IC50 entry in assay [1] (reticulocytes), in assay [2] (cho-k1), in assay [3], in assay [4] and in assay [5] was “Not Active” each time.

On to `COc1ccc2cc3[n+](cc2c1OC)CCc1cc2c(cc1-3)OCO2.[Cl-]` [BERBERINE CHLORIDE], for which the IC50 result in assay [1] (reticulocytes) was “Not Active”; in assay [2] (read-out: IC50), 3440 nM; in assay [3] (read-out: IC50), 2220 nM; in assay [4], “Not Active”; in assay [5], “Not Active”. Besides, the Ki was 2190 nM in assay [2] and 370 nM in assay [3] (read-out: Ki).

In the case of `O=C(O)CCNC(=O)c1ccccc1` [BETAMIPRON], the IC50 result in assay [1] (reticulocytes), in assay [2] (cho-k1), in assay [3], in assay [4] and in assay [5] was “Not Active” each time.

For the compound `COc1cc(N)c(Cl)cc1C(=O)NC1CCN(CCCOc2ccc(F)cc2)CC1OC` (stereo unspecified) [CISAPRIDE], the IC50 result in assay [1] (reticulocytes), in assay [4] and in assay [5] was “Not Active” each time.

Regarding `Nc1ccn([C@@H]2O[C@H](CO)[C@@H](O)[C@@H]2O)c(=O)n1` [CYTARABINE], the IC50 entry in assay [1] (reticulocytes), in assay [2] (cho-k1), in assay [3], in assay [4] and in assay [5] was “Not Active” in each case.

In the case of `C[C@@H]1C[C@H]2[C@@H]3CCC4=CC(=O)C=C[C@]4(C)[C@@]3(F)[C@@H](O)C[C@]2(C)[C@@]1(O)C(=O)CO` [DEXAMETHASONE], the IC50 result in assay [1] (reticulocytes), in assay [2] (cho-k1), in assay [3], in assay [4] and in assay [5] was “Not Active” in each case.

On to `CN(C)CC[C@@H](c1ccc(Cl)cc1)c1ccccn1` [DEXCHLORPHENIRAMINE], for which the IC50 result in assay [1] (reticulocytes), in assay [2] (cho-k1), in assay [3], in assay [4] and in assay [5] was “Not Active” throughout.

Regarding `OC(CCCN1CCCCC1)(c1ccccc1)c1ccccc1` [DIPHENIDOL], the IC50 result in assay [1] (reticulocytes), in assay [2] (cho-k1), in assay [3], in assay [4] and in assay [5] was “Not Active” each time.

With `CC[C@H]1CN2CCc3cc(OC)c(OC)cc3[C@@H]2C[C@@H]1C[C@H]1NCCc2cc(OC)c(OC)cc21` [EMETINE], the IC50 result in assay [1] (reticulocytes), in assay [2] (cho-k1), in assay [3], in assay [4] and in assay [5] was “Not Active” in each case.

For `CCC1(C)CC(=O)NC1=O` (stereo unspecified) [ETHOSUXIMIDE], the IC50 result in assay [1] (reticulocytes), in assay [2] (cho-k1), in assay [3], in assay [4] and in assay [5] was “Not Active” each time.

With `C=CCc1ccc(O)c(OC)c1` [EUGENOL], the IC50 entry in assay [1] (reticulocytes), in assay [2] (cho-k1), in assay [3], in assay [4] and in assay [5] was “Not Active” in each case.

`CC(C)(C)NC(=O)[C@H]1CC[C@H]2[C@@H]3CC[C@H]4NC(=O)C=C[C@]4(C)[C@H]3CC[C@]12C` [FINASTERIDE]: the IC50 entry in assay [1] (reticulocytes), in assay [2] (cho-k1), in assay [3], in assay [4] and in assay [5] was “Not Active” each time.

For the compound `CC(C)=CCC/C(C)=C/CO` [GERANIOL], the half-inhibitory concentration (IC50) entry in assay [1] (reticulocytes), in assay [2] (cho-k1), in assay [3], in assay [4] and in assay [5] was “Not Active” in each case.

In the case of `N=C(N)NC(=O)Cc1c(Cl)cccc1Cl` [GUANFACINE], the IC50 result in assay [1] (reticulocytes) is “Not Active”; in assay [2] (read-out: IC50), 2100 nM; in assay [3] it was “Not Active”; in assay [4] it was “Not Active”; in assay [5] it was “Not Active”. Also, in assay [2], the Ki came out at 1340 nM.

Consider `Oc1c(Cl)cc(Cl)c(Cl)c1Cc1c(O)c(Cl)cc(Cl)c1Cl` [HEXACHLOROPHENE], for which the IC50 result (in assay [1] (reticulocytes); in assay [3]; on Estrogen receptor beta; in assay [4]; in assay [5]) was “Not Active” each time.

With `NNc1nncc2ccccc12` [HYDRALAZINE], the IC50 is 3650 nM in assay [1] (read-out: IC50); “Not Active” in assay [2] (cho-k1); “Not Active” in assay [3]; “Not Active” in assay [4]; “Not Active” in assay [5].

On to `C#CC1(O)CC[C@H]2[C@@H]3CCC4=CC(=O)CC[C@@H]4[C@H]3CC[C@@]21CC` (stereo partly specified) [NORGESTREL], for which the IC50 result in assay [1] (reticulocytes), in assay [2] (cho-k1), in assay [3], in assay [4] and in assay [5] was “Not Active” in each case.

Take `COC(=O)Nc1nc2ccc([S+]([O-])c3ccccc3)cc2[nH]1` (stereo unspecified) [OXFENDAZOLE]: the IC50 entry in assay [1] (reticulocytes), in assay [2] (cho-k1), in assay [3], in assay [4] and in assay [5] was “Not Active” in each case.

As to `CC(C)NCC(O)COc1cccc2[nH]ccc12` (stereo unspecified) [PINDOLOL], the IC50 entry (in assay [1] (reticulocytes); in assay [2] (cho-k1); in assay [3]; against Estrogen receptor beta; in assay [5]) was “Not Active” throughout.

For `CCCNCC(O)COc1ccccc1C(=O)CCc1ccccc1` (stereo unspecified) [PROPAFENONE], the IC50 entry (in assay [1] (reticulocytes); in assay [3]; on Estrogen receptor beta; in assay [5]) was “Not Active” each time.
